Read-outs that look alike come from different tables or passages of the source.
Columns and labels:
[1] = tested on: HCT-116 human colon carcinoma cells; assay: In vitro activity against human tumour cell line HCT-116 (proliferation); type: cell-based; details: HCT-116, 96 h, MTT, read-out: IC50
Procedure: (§1) Cells from the human tumour cell lines DLD-1, HCT-116, WiDr and A549 are exposed to serially diluted concentrations of test compounds over a 96 hour period in culture. The ability of such cells to proliferate over the test period is determined.
(§2) Cells in log growth are plated into 96 well multiwell tissue culture dishes in 100 μl/well of RPMI 1640 culture medium supplemented with 10% foetal calf serum, antibiotics and test compound. All compounds are formulated initially at appropriate concentrations in DMSO, the final concentrations in this solvent being twenty times that required in the plate. A final 1 in 10 dilution in complete medium is then made before adding 100 μl to each well of the plate. All compounds are evaluated at concentrations ranging serially in four fold decrements from a top concentration some four fold greater than that already known to inhibit the proliferation of cells from the mouse lymphoid neoplasm, P388D1 by about 80 to 90 percent in a primary proliferative assay.
(§3) After 96 hours the proliferation of cells exposed to test compound is compared with control untreated cells by one of two methods:
(§4) b) 20 μl of MTT (5 mg/ml in PBS) is added to each well. After an incubation period of 4 hours the medium from each well is aspirated and replaced with 200 μl DMSO to dissolve the formazan crystals formed. Absorbances are read by an ELISA plate spectrophotometer at a wavelength of 540 nm. The IC50 is defined as that concentration of drug which decreases absorbance to 50% of that in control (drug-free) cultures. This method is used for the WiDr, HCT-116 and A549 cell lines.

[2] = tested on: A549 human lung carcinoma cells; assay: In vitro activity against human tumour cell line A549 (proliferation); type: cell-based; details: A549, 96 h
Procedure: as §1, §2, §3, §4

P388/O tumour = assay: Lymphocytic leukaemia P388/O test; type: in vivo, mouse
Procedure: C. Lymphocytic Leukemia P388/O Test
CD2-F1 mice, of the same sex, weighing within a 3 gram range surrounding 20 g, are used for this test. Control and test animals are injected intraperitoneally with a suspension of 10^6 viable P388/O tumour cells on day 0. In each test several dose levels which bracket the LD20 for the compound are evaluated; each dose level group contains 6 animals. The test compounds are prepared either in physiologic saline containing 0.05% Tween 80 or distilled water containing 5% dextrose and are administered intraperitoneally on days 1,5 and 9 relative to tumour implant. Doses are on a mg/kg basis according to individual animals' body weights. The day of death for each animal is recorded and the median day of death identified for each group. The difference between the median survival time for treated and control groups is expressed as a percentage increase in life span (% ILS).

P388 D1 cells = assay: P388 D1 colony-forming assay; type: cell-based; details: Mus musculus, P388D1; 24 h exposure, 14 days colony growth; read-out: IC50 colony formation
Procedure: B) P338D1 Colony-forming Assay
In this assay, cells from an in vitro-adapted line of the mouse lymphoid neoplasm, P388 are first exposed to serially diluted concentrations of test compound over a 24 hour period in culture. Thereafter, the ability of such treated cells to form discrete colonies over a 14 day period after resuspension in a semi-solid drug-free medium is determined.
Initially cells in log growth are plated into individual 25 cm^2 tissue culture flasks each containing a final volume of 5 mls of Hepes buffered RPMI 1640 culture medium supplemented with 10 percent foetal calf serum, antibiotics and test compound. All compounds are formulated initially at appropriate concentrations in DMSO, 25 microliters of which is then added to each flask. All compounds are evaluated at concentrations ranging serially in four fold decrements from a top concentration some four fold greater than that already known to inhibit the proliferation of these cells by about 80 to 90 percent in the primary proliferative assay.
After 24 hrs exposure to the test compound the cells are counted and a known number of live cells transferred to a 15 ml centrifuge tube to which 4 mls of a 0.25 percent low temperature gelling agarose solution in complete RPMI tissue culture medium is then added. After 13 days incubation at 37° C., 1 ml of 1% p-Iodonitrotetrazolium violet is added to the top of each tube and allowed to permeate through the agarose for a further 24 to 48 hrs. This dye is metabolised by living cells to produce an insoluble red crystalline product which facilitates counting of the colonies. Samples are taken from each tube and the number of colonies containing a minimum of 50 cells is determined. The concentration of compound necessary to inhibit colony formation by 50 percent relative to that of control cells incubated under identical conditions but in the absence of the test compound is determined.

LD20 (Mouse) = type: in vivo; details: i.p. days 1, 5 and 9, CD2-F1 mice, observed up to 14 days
tubulin = assay: Turbidimetric assay of tubulin polymerisation; type: biochemical, horse; details: 37° C., increase in A350nm 10 min after lag phase; read-out: Total tubulin polymerisation IC50
Procedure: A) Tubulin Polymerisation Assay
1. Preparation of tubulin
All manipulations are performed at 4° C. unless otherwise specified. The horse brain is washed in ice-cold BBG buffer and superficial meninges and blood vessels removed. After weighing, cerebral cortices are chopped, homogenised in 75 ml BBG buffer/100 g brain, centrifuged at 6500 g for 15 min and after removal of […], re-centrifuged at 100,000 g for 75 min. The volume of the supernatant (Vml) is measured and V/10 ml 10 mM GTP (Li salt) in H2 O added. The mixture is incubated in sealed centrifuge tubes (30 min, 34° C.) in a shaking water bath to polymerise the tubulin. After polymerisation the tubes are balanced and centrifuged at 100,000 g, (1 h at 27° C.) in a pre-warmed rotor. The high-speed pellet is resuspended in V/4 ml BB buffer and the preparation stirred on ice for 30 min and centrifuged at 100,000 g (1 h at 4° C.) to remove the cold-stable microtubules. An equal volume of BB2G buffer is added to the supernatant which is frozen rapidly in 5 ml samples in plastic weighing dishes floated on a solid CO2 /ethanol slurry, and stored overnight at -80° C. After ca. 18 hours the frozen samples of tubulin are thawed, 10 mM GTP in H2 O added to give a final concentration of 1 mM, and the new volume (Wml), is measured. The polymerisation/depolymerisation cycle is repeated exactly as above but substituting W for V to give twice-cycled tubulin.
2. Turbidimetric Assay of Tubulin Polymerisation
Apparatus: recording spectrophotometer with a 6-position, thermostatted cuvette holder; full scale deflection=0.2 absorbance units.
In a 1 ml spectrophotometer cuvette are mixed 100 μl 10 mM GTP (Li salt) made up in BB buffer, 10 μl H2 O or DMSO-depending on selected drug solvent, BB buffer and tubulin preparation such that the final increase in A350nm is 0.15 units after 16 mins (approx. 100 μl of tubulin prep. or 2.5 mg protein) in a final volume of 1 ml at 37° C. All reagents are stored on ice.
Polymerisation is initiated by raising the temperature to 37° C. and the increase in A350nm of triplicate samples against a reference cuvette is recorded. The reference sample includes a similar incubation mixture either without tubulin or with the addition of 1 mM Ca^2+. The increase over initial A350nm 10 min after the completion of lag phase (control polymerisation is 80% complete within this time) is calculated and expressed as a percentage of the control value, for a range of drug concentrations. The drug concentration required to give a 50% change (IC50) in the control value is determined.

[3] = tested on: DLD-1 human colon carcinoma cells; assay: In vitro activity against human tumour cell line DLD-1 (proliferation); type: cell-based; details: DLD-1, 96 h, methylene blue, read-out: IC50
Procedure: as §1, §2, §3
a) Culture supernatants are aspirated and cells fixed and stained by adding a solution of methylene blue (5 g per liter of 50% ethanol: water, 100 μl/well). After 30 minutes at room temperature unbound stain is washed off by immersing plates in water. Stained cells are solubilised overnight using 1% Sarkosyl (Sigma) in phosphate-buffered saline (100 μl/well). Absorbances are read by an ELISA plate spectrophotometer at a wavelength of 620 nm. The IC50 is defined as that concentration of drug which decreases absorbance to 50% of that in control (drug-free) cultures. This method is used for the DLD-1 cell line.

[4] = tested on: WiDr human colon adenocarcinoma cells; assay: In vitro activity against human tumour cell line WiDr (proliferation); type: cell-based; details: 96 h, MTT, read-out: IC50
Procedure: as §1, §2, §3, §4

[5] = Mus musculus, P388, ip, 200 mg/kg i.p. days 1, 5 and 9
[6] = Mus musculus, P388, ip, 675 mg/kg i.p. days 1, 5 and 9

Row | Structure (SMILES) | IC50 [1] [nM] | IC50 (P388 D1 cells) [nM] | LD50 (LD20 (Mouse)) [mg/kg] | IC50 (tubulin) [nM] | IC50 [3] [nM] | IC50 [4] [nM] | other results
1 | COC(=O)Nc1cn2nc(OCc3cc(OC)ccc3OC)ccc2n1 [Example 3, Methyl N-[6-(2,5-Dimethoxybenzyloxy)imidazo[1,2-b]pyridazin-2-yl]carbamate] | 1.91 | 2.15 | 200 | 410 | 1.35 | 0.92 | IC50 [2]: 1.92 nM; ILS at 50 mg/kg (P388/O tumour; Mus musculus, P388, ip, 50 mg/kg i.p. days 1, 5 and 9): 136%
2 | COC(=O)Nc1cn2nc(OCc3cccc4ccccc34)ccc2n1 [Example 9, Methyl N-[6-(1-Naphthylmethyloxy)imidazo[1,2-b]pyridazin-2-yl]carbamate] |  |  | 450 | 890 |  |  | ILS at 200 mg/kg (P388/O tumour; [5]): 180%
3 | COC(=O)Nc1cn2nc(OCc3cc(OC)cc(OC)c3)ccc2n1 [Example 11, Methyl N-[6-(3,5-Dimethoxybenzyloxy)imidazo[1,2-b)pyridazin-2-yl]carbamate] |  | 41 | > 450 | 4240 |  |  | 30 Day survivors (P388/O tumour; 675 mg/kg i.p. days 1, 5 and 9): 1/6; 60 Day Survivors (P388/O tumour; 675 mg/kg i.p. days 1, 5 and 9): 0/6; ILS at 675 mg/kg (P388/O tumour; [6]): 155%
4 | CCCOC(=O)Nc1cn2nc(OCc3cc(OC)c(OC)c(OC)c3)ccc2n1 [Example 4, n-Propyl N-[6-(3,4,5-trimethoxybenzyloxy)imidazo[1,2-b]pyridazin-2-yl]carbamate] | 5.45 | 5.12 | 20 | 370 | 6.63 | 11 | IC50 ([2]; MTT, read-out: IC50): 20.8 nM; ILS at 20 mg/kg (P388/O tumour; Mus musculus, P388, ip, 20 mg/kg i.p. days 1, 5 and 9): 44%
5 | CCCCOC(=O)Nc1cn2nc(OCc3cc(OC)c(OC)c(OC)c3)ccc2n1 [Example 5, n-Butyl N-[6-(3,4,5-trimethoxybenzyloxy)imidazo[1,2-b]pyridazin-2-yl]carbamate] | 3.3 | 12.6 | 140 | 490 | 7.34 | 3.65 | IC50 ([2]; MTT, read-out: IC50): 4.36 nM; ILS at 150 mg/kg (P388/O tumour; Mus musculus, P388, ip, 150 mg/kg i.p. days 1, 5 and 9): 61%
6 | CCOc1c(OC)cc(COc2ccc3nc(NC(=O)OC)cn3n2)cc1OC [Example 33, Methyl N-[6-(3,5-dimethoxy-4-ethoxybenzyloxy)imidazo[1,2-b]pyridazin-2-yl]carbamate] |  |  |  |  |  |  | 60 Day Survivors (P388/O tumour; (Day 51), 200 mg/kg i.p. days 1, 5 and 9): 3/6; ILS at 200 mg/kg (P388/O tumour; [5]): 240%
7 | COC(=O)Nc1cn2nc(OCc3cccc(C)c3)ccc2n1 [Example 12, Methyl N-[6-(3-methylbenzyloxy)imidazo[1,2-b]pyridazin-2-yl]carbamate] |  |  | > 450 | 1210 |  |  | ILS at 675 mg/kg (P388/O tumour; [6]): 170%
8 | COCCOC(=O)Nc1cn2nc(OCc3cc(OC)c(OC)c(OC)c3)ccc2n1 [Example 8, 2-Methoxyethyl N-[6-(3,4,5-trimethoxybenzyloxy)imidazo[1,2-b]pyridazin-2-yl]carbamate] | 20.5 | 2.93 | 15 | 230 | 8.82 | 41 | IC50 ([2]; MTT, read-out: IC50): 39 nM; ILS at 10 mg/kg (P388/O tumour; Mus musculus, P388, ip, 10 mg/kg i.p. days 1, 5 and 9): 44%
9 | COC(=O)Nc1cn2nc(OCc3cccc(OC)c3OC)ccc2n1 [Example 32, Methyl N-[6-(2,3-dimethoxybenzyloxy)imidazo[1,2-b]pyridazin-2-yl]carbamate] |  |  | > 450 |  |  |  | 60 Day Survivors (P388/O tumour; 750 mg/kg i.p. days 1, 5 and 9): 1/6; ILS at 750 mg/kg (P388/O tumour; Mus musculus, P388, ip, 750 mg/kg i.p. days 1, 5 and 9): 280%
10 | COC(=O)N(C)c1cn2nc(OCc3cc(OC)c(OC)c(OC)c3)ccc2n1 [Example 26, Methyl N-[N-Methyl-6-(3,4,5-trimethoxybenzyloxy)imidazo[1,2-b]pyridazin-2-yl]carbamate] |  |  | 450 |  |  |  | ILS at 300 mg/kg (P388/O tumour; Mus musculus, P388, ip, 300 mg/kg i.p. days 1, 5 and 9): 263%
11 | COC(=O)Nc1cn2nc(OCc3cc(OC)c(OC)c(OC)c3Br)ccc2n1 [Example 31, Methyl N-[6-(2-bromo-3,4,5-trimethoxybenzyloxy)imidazo[1,2-b]pyridazin-2-yl]carbamate] |  |  | 165 |  |  |  | 

— US5380759A, “Methyl N-[6-(3,4,5-trimethoxybenzloxy)imidazo[1,2-b]pyridazin-2-zyl]carbamate used to treat leukemia” (priority 1987, dated 1995)
